≈ marks a conversion by molar mass, not a printed value.
What was measured:
Treponema hyodysenteriae = test: in vitro antibacterial activity (MIC) against Treponema hyodysenteriae; format: cell-based; conditions: Brachyspira hyodysenteriae, growth medium with about 5% bovine blood and about 3% tryptose agar
Method: MIC's against Treponema hyodysenteriae were determined by spreading appropriate dilutions of the microorganism on a growth medium containing about 5% bovine blood and about 3% tryptose agar.
Among the compounds of structure I subjected to in vitro screening were the following in which R and R1 have the above meaning.

[1] = tested on: Salmonella Typhimurium TA 1538; test: Ames test, in the presence of microsomial extract, strain TA 1538; format: cell-based
Excerpt: (§1) Mutation Test determined according to the "Ames test"
(§2) (B.N. Ames et al. Mutation Research 31, page 347, 1975).
(§3) The compound 2-[bis-(1'-hydroxy-3'-t-butyl-4'-methoxy-phenyl-2')-methyl-quinoxaline-1,4-dioxide prepared according to Example 1 was submitted to the Ames test showing the results summarized in the following two tables: […]

[2] = tested on: Salmonella Typhimurium TA 100; test: Ames test, in the absence of microsomial extract, strain TA 100; format: cell-based
Excerpt: as §1, §2, §3

Treponema hyodysenterae = test: medicated feed in pigs exposed to Treponema hyodysenterae infections (swine dysentery); format: in vivo
Excerpt: Compound of Example 1 was mixed with the swine balanced feed described on page 8 at the ratio of 200 grams/ton. A group of 30 pigs was fed with this medicated diet. An equivalent group of pigs was used as control. The two groups were stabled in pigsties where infections of Treponema hyodysenterae have been observed. No one of the animals under treatment was getting ill, while the 50% of the untreated animals in the control group was clearly showing typical symptoms of swine dysentery.

[3] = tested on: Salmonella Typhimurium TA 1535; test: Ames test, in the presence of microsomial extract, strain TA 1535; format: cell-based
Excerpt: as §1, §2, §3

[4] = tested on: Salmonella Typhimurium TA 100; test: Ames test, in the presence of microsomial extract, strain TA 100; format: cell-based
Excerpt: as §1, §2, §3

[5] = tested on: Salmonella Typhimurium TA 98; test: Ames test, in the absence of microsomial extract, strain TA 98; format: cell-based
Excerpt: as §1, §2, §3

[6] = tested on: Salmonella Typhimurium TA 1535; test: Ames test, in the absence of microsomial extract, strain TA 1535; format: cell-based
Excerpt: as §1, §2, §3

[7] = growth promotion and feed efficiency in pigs; format: in vivo; conditions: 28 days, 200 grams/ton in diet
Excerpt: The efficacy of compound of Example 1 in promoting growth and improving the feed efficiency is illustrated below. 20 healthy pigs of same age and of average same weight were divided into two groups. One group of 10 pigs served as control and was fed a basal non-supplemented diet, the other group of 10 pigs received the same basal diet, but supplemented with 200 grams/ton of compound of Example 1.

[8] = tested on: Salmonella Typhimurium TA 98; test: Ames test, in the presence of microsomial extract, strain TA 98; format: cell-based
Excerpt: as §1, §2, §3

[9] = tested on: Salmonella Typhimurium TA 1538; test: Ames test, in the absence of microsomial extract, strain TA 1538; format: cell-based
Excerpt: as §1, §2, §3

Salmonella Typhimurium = conditions: Ames test; prior art compound; cited from earlier work

COc1ccc(O)c(C(c2c(O)ccc(OC)c2C(C)C)c2c[n+]([O-])c3ccccc3[n+]2[O-])c1C(C)C [Example 2, 2-[bis(1'-hydroxy-3'-i-propyl-4'-methoxy-phenyl-2')-methyl]-quinoxaline-1,4-dioxide]
MIC (Treponema hyodysenteriae): 0.9 µg/mL (≈ 1.78 µM)

COc1ccc(O)c(C(c2c(O)ccc(OC)c2C(C)(C)C)c2c[n+]([O-])c3ccccc3[n+]2[O-])c1C(C)(C)C [Example 1, 2-[bis(1'-hydroxy-3'-t-butyl-4'-methoxy-phenyl-2')-methyl]-quinoxaline-1,4-dioxide]
Number of mutating colonies/plate ([1]; TA 1538, 10 mcg): 16 mutating colonies/plate
Number of mutating colonies/plate ([1]; TA 1538, 30 mcg): 14 mutating colonies/plate
Number of mutating colonies/plate ([1]; TA 1538, 100 mcg): 15 mutating colonies/plate
Number of mutating colonies/plate ([1]; TA 1538, 300 mcg): 8 mutating colonies/plate
Number of mutating colonies/plate ([1]; TA 1538, 600 mcg): 18 mutating colonies/plate
Number of mutating colonies/plate ([1]; TA 1538, 1000 mcg): 14 mutating colonies/plate
Number of mutating colonies/plate ([2]; TA 100, 10 mcg): 168 mutating colonies/plate
Number of mutating colonies/plate ([2]; TA 100, 30 mcg): 165 mutating colonies/plate
Number of mutating colonies/plate ([2]; TA 100, 100 mcg): 151 mutating colonies/plate
Number of mutating colonies/plate ([2]; TA 100, 300 mcg): 162 mutating colonies/plate
Number of mutating colonies/plate ([2]; TA 100, 600 mcg): 177 mutating colonies/plate
Number of mutating colonies/plate ([2]; TA 100, 1000 mcg): 142 mutating colonies/plate
MIC (Treponema hyodysenteriae): 0.1 µg/mL (≈ 0.188 µM)
animals under treatment getting ill (Treponema hyodysenterae; 200 grams/ton of feed, 30 pigs, control group 50% ill): No one
recovery of the infected animals (Treponema hyodysenterae; after 2 weeks of treatment with medicated feed, 200 grams/ton): recovered completely
solubility (solubility; in acetone): slightly soluble
solubility (solubility; in benzene): slightly soluble
solubility (solubility; in dimethylformamide): soluble
solubility (solubility; in dioxane): soluble
solubility (solubility; in methanol): slightly soluble
solubility (solubility; in tetrahydrofuran): soluble
solubility (solubility; in water): very scarcely soluble
Number of mutating colonies/plate ([3]; TA 1535, 10 mcg): 23 mutating colonies/plate
Number of mutating colonies/plate ([3]; TA 1535, 30 mcg): 26 mutating colonies/plate
Number of mutating colonies/plate ([3]; TA 1535, 100 mcg): 22 mutating colonies/plate
Number of mutating colonies/plate ([3]; TA 1535, 300 mcg): 16 mutating colonies/plate
Number of mutating colonies/plate ([3]; TA 1535, 600 mcg): 22 mutating colonies/plate
Number of mutating colonies/plate ([3]; TA 1535, 1000 mcg): 20 mutating colonies/plate
Number of mutating colonies/plate ([4]; TA 100, 10 mcg): 158 mutating colonies/plate
Number of mutating colonies/plate ([4]; TA 100, 30 mcg): 143 mutating colonies/plate
Number of mutating colonies/plate ([4]; TA 100, 100 mcg): 135 mutating colonies/plate
Number of mutating colonies/plate ([4]; TA 100, 300 mcg): 174 mutating colonies/plate
Number of mutating colonies/plate ([4]; TA 100, 600 mcg): 175 mutating colonies/plate
Number of mutating colonies/plate ([4]; TA 100, 1000 mcg): 125 mutating colonies/plate
Number of mutating colonies/plate ([5]; TA 98, 10 mcg): 25 mutating colonies/plate
Number of mutating colonies/plate ([5]; TA 98, 30 mcg): 24 mutating colonies/plate
Number of mutating colonies/plate ([5]; TA 98, 100 mcg): 27 mutating colonies/plate
Number of mutating colonies/plate ([5]; TA 98, 300 mcg): 24 mutating colonies/plate
Number of mutating colonies/plate ([5]; TA 98, 600 mcg): 27 mutating colonies/plate
Number of mutating colonies/plate ([5]; TA 98, 1000 mcg): 27 mutating colonies/plate
Number of mutating colonies/plate ([6]; TA 1535, 10 mcg): 15 mutating colonies/plate
Number of mutating colonies/plate ([6]; TA 1535, 30 mcg): 12 mutating colonies/plate
Number of mutating colonies/plate ([6]; TA 1535, 100 mcg): 9 mutating colonies/plate
Number of mutating colonies/plate ([6]; TA 1535, 300 mcg): 13 mutating colonies/plate
Number of mutating colonies/plate ([6]; TA 1535, 600 mcg): 25 mutating colonies/plate
Number of mutating colonies/plate ([6]; TA 1535, 1000 mcg): 16 mutating colonies/plate
increase in feed efficiency over the controls [7]: 5,5%
body weight increase over control (heavier on average) ([7]; versus control ration): 4,6%
Number of mutating colonies/plate ([8]; TA 98, 10 mcg): 30 mutating colonies/plate
Number of mutating colonies/plate ([8]; TA 98, 30 mcg): 27 mutating colonies/plate
Number of mutating colonies/plate ([8]; TA 98, 100 mcg): 24 mutating colonies/plate
Number of mutating colonies/plate ([8]; TA 98, 300 mcg): 20 mutating colonies/plate
Number of mutating colonies/plate ([8]; TA 98, 600 mcg): 24 mutating colonies/plate
Number of mutating colonies/plate ([8]; TA 98, 1000 mcg): 28 mutating colonies/plate
Number of mutating colonies/plate ([9]; TA 1538, 10 mcg): 11 mutating colonies/plate
Number of mutating colonies/plate ([9]; TA 1538, 30 mcg): 16 mutating colonies/plate
Number of mutating colonies/plate ([9]; TA 1538, 100 mcg): 15 mutating colonies/plate
Number of mutating colonies/plate ([9]; TA 1538, 300 mcg): 10 mutating colonies/plate
Number of mutating colonies/plate ([9]; TA 1538, 600 mcg): 17 mutating colonies/plate
Number of mutating colonies/plate ([9]; TA 1538, 1000 mcg): 17 mutating colonies/plate

[N-]=[N+]=[N-] [sodium azide, reference compound]
Number of mutating colonies/plate ([1]; TA 1538, 10 mcg): 2258 mutating colonies/plate
Number of mutating colonies/plate ([6]; TA 1535, 10 mcg): 1006 mutating colonies/plate
Number of mutating colonies/plate ([8]; TA 98, 10 mcg): 1803 mutating colonies/plate

COC(=O)NN=Cc1c[n+]([O-])c2ccccc2[n+]1[O-] [carbadox, 2-formyl-quinoxaline-1,4-dioxide carbomethoxyhydrazone]
mutagenic effect (Salmonella Typhimurium): substantial mutagenic effect

Source: patent US4684649A, “Quinoxaline derivatives useful for treatment and prophylaxis of swine dysentery and as animal growth promotants” (priority 1985, dated 1987)
